# Data: patent US20240109903A1, “SUBSTITUTED HETEROCYCLES FOR TREATING CANCER” (Northwestern University, priority 2022, published 2024)
# pIC50: −log10 of the molar value. Read-outs that look alike come from different tables or passages of the source.
# Columns and labels:
# Type in all cases: cell-based
# HS 578T = assay: NCI 60 five-dose screen HS 578T; settings: Homo sapiens, five-dose; for CC50: read-out: LC50 (the source's name)
# EKVX = assay: NCI 60 five-dose screen EKVX; settings: Homo sapiens, five-dose; for CC50: read-out: LC50 (the source's name) (converted)
# NCI-H522 = assay: NCI 60 five-dose screen NCI-H522; settings: Homo sapiens, five-dose
# SW-620 = assay: NCI 60 five-dose screen SW-620; settings: Homo sapiens, five-dose; for CC50: read-out: LC50 (the source's name) (converted)
# T-47D = assay: NCI 60 five-dose screen T-47D; settings: Homo sapiens, T47D, five-dose; for CC50: read-out: LC50 (the source's name)
# OVCAR-3 = assay: NCI 60 five-dose screen OVCAR-3; settings: Homo sapiens, five-dose; for CC50: read-out: LC50 (the source's name) (converted)
# MALME-3M = assay: NCI 60 five-dose screen MALME-3M; settings: Homo sapiens, MALME-3M, five-dose; for CC50: read-out: LC50 (the source's name) (converted)
# K-562 = assay: NCI 60 five-dose screen K-562; settings: Homo sapiens, K562, five-dose; for CC50: read-out: LC50 (the source's name)
# HOP-92 = assay: NCI 60 five-dose screen HOP-92; settings: Homo sapiens, five-dose; for CC50: read-out: LC50 (the source's name) (converted)
# SK-MEL-2 = assay: NCI 60 five-dose screen SK-MEL-2; settings: Homo sapiens, five-dose; for CC50: read-out: LC50 (the source's name) (converted)
# SF-295 = assay: NCI 60 five-dose screen SF-295; settings: Homo sapiens, five-dose; for CC50: read-out: LC50 (the source's name) (converted)
# ACHN = assay: NCI 60 five-dose screen ACHN; settings: Homo sapiens, five-dose; for CC50: read-out: LC50 (the source's name) (converted)
# A549/ATCC = assay: NCI 60 five-dose screen A549/ATCC; settings: Homo sapiens, five-dose; for CC50: read-out: LC50 (the source's name) (converted)
# [1] = test system: MV-4-11 acute myeloid leukemia cells; assay: CellTiter-Glo 2.0 cell viability, MV-4-11; settings: Homo sapiens; for IC50: MV4-11, 72 h, MV-4-11 cells, 3 days, CellTiter-Glo 2.0, read-out: IC50 (uM) [Cell Type: MV-4-11]; for pIC50: MV4-11, bound stated in text, read-out: IC50 against MV-4-11 acute myeloid leukemia cells
# Protocol: 2019 October; 94(4): 1813-1823.
# Cell viability was assessed using the CellTiter-Glo 2.0 assay from Promega, which yields a signal proportional to the amount of ATP present in a cell population. Compounds were first dispensed into empty 96-well flat-bottom tissue culture-treated plates (Corning) using an Echo550. MV4-1 cells were diluted to a density of 0.1 million cells per ml, pipetted onto the compounds at a density of 1,000 cells per well for U937 and 3,000 cells per well for MV4-11, mixed, and incubated for 3 days at 37° C. with 5% C02. After incubating, 5 μl of cells from each well were added to 5 μl of CellTiter-Glo 2.0 reagent in a384-well white ProxiPlate (PerkinElmer), incubated for 20 minutes at ambient temperature, and luminescence was analyzed on an EnSpire plate reader. Graphing and regression analysis was performed in Graphpad Prism.
# OVCAR-4 = assay: NCI 60 five-dose screen OVCAR-4; settings: Homo sapiens, five-dose; for CC50: read-out: LC50 (the source's name) (converted)
# CCRF-CEM = assay: NCI 60 five-dose screen CCRF-CEM; settings: Homo sapiens, five-dose; for CC50: read-out: LC50 (the source's name)
# NCI-H23 = assay: NCI 60 five-dose screen NCI-H23; settings: Homo sapiens, five-dose; for CC50: read-out: LC50 (the source's name) (converted)
# M14 = assay: NCI 60 five-dose screen M14; settings: Homo sapiens, five-dose; for CC50: read-out: LC50 (the source's name) (converted)
# IGROV1 = assay: NCI 60 five-dose screen IGROV1; settings: Homo sapiens, IGROV-1, five-dose; for CC50: read-out: LC50 (the source's name) (converted)
# MCF7 = assay: NCI 60 five-dose screen MCF7; settings: Homo sapiens, five-dose; for CC50: read-out: LC50 (the source's name) (converted)
# PC-3 = assay: NCI 60 five-dose screen PC-3; settings: Homo sapiens, five-dose; for CC50: read-out: LC50 (the source's name) (converted)
# HCT-116 = assay: NCI 60 five-dose screen HCT-116; settings: Homo sapiens, five-dose; for CC50: read-out: LC50 (the source's name) (converted)
# DU-145 = assay: NCI 60 five-dose screen DU-145; settings: Homo sapiens, five-dose; for CC50: read-out: LC50 (the source's name) (converted)
# A498 = assay: NCI 60 five-dose screen A498; settings: Homo sapiens, five-dose; for CC50: read-out: LC50 (the source's name) (converted)
smiles,measurement,setting,value
FC(F)(F)c1cc2c(Cl)ncnc2n1CCN1CCCCC1 [NUCC-0226679],GI50,HS 578T,16.6 µM
same,pIC50,HS 578T,4.00
same,IC (TGI),HS 578T,60.3 µM
same,CC50,HS 578T,≥ 100 µM
same,GI50,EKVX,16.2 µM
same,pIC50,EKVX,4.29
same,IC (TGI),EKVX,85.1 µM
same,CC50,EKVX,≥ 100 µM
same,GI50,NCI-H522,1.7 µM
same,pIC50,NCI-H522,5.49
same,IC (TGI),NCI-H522,3.47 µM
same,GI50,SW-620,11.2 µM
same,pIC50,SW-620,4.80
same,IC (TGI),SW-620,28.8 µM
same,CC50,SW-620,74.1 µM
same,GI50,T-47D,21.9 µM
same,pIC50,T-47D,4.15
same,IC (TGI),T-47D,100 µM
same,CC50,T-47D,≥ 100 µM
same,GI50,OVCAR-3,17.8 µM
same,pIC50,OVCAR-3,4.48
same,IC (TGI),OVCAR-3,35.5 µM
same,CC50,OVCAR-3,72.4 µM
same,GI50,MALME-3M,19.1 µM
same,pIC50,MALME-3M,4.20
same,IC (TGI),MALME-3M,55 µM
same,CC50,MALME-3M,≥ 100 µM
same,GI50,K-562,2.88 µM
same,pIC50,K-562,5.44
same,IC (TGI),K-562,100 µM
same,CC50,K-562,≥ 100 µM
same,GI50,HOP-92,19.5 µM
same,pIC50,HOP-92,4.20
same,IC (TGI),HOP-92,53.7 µM
same,CC50,HOP-92,≥ 100 µM
same,GI50,SK-MEL-2,16.6 µM
same,pIC50,SK-MEL-2,4.47
same,IC (TGI),SK-MEL-2,33.1 µM
same,CC50,SK-MEL-2,66.1 µM
same,GI50,SF-295,22.4 µM
same,pIC50,SF-295,4.39
same,IC (TGI),SF-295,87.1 µM
same,CC50,SF-295,≥ 100 µM
same,GI50,ACHN,6.46 µM
same,pIC50,ACHN,4.77
same,IC (TGI),ACHN,100 µM
same,CC50,ACHN,≥ 100 µM
same,GI50,A549/ATCC,79.4 µM
same,pIC50,A549/ATCC,4.00
same,IC (TGI),A549/ATCC,100 µM
same,CC50,A549/ATCC,≥ 100 µM
same,IC50,[1],0.675 µM
same,pIC50,[1],> 5.70
same,GI50,OVCAR-4,28.2 µM
same,pIC50,OVCAR-4,4.15
same,IC (TGI),OVCAR-4,100 µM
same,CC50,OVCAR-4,≥ 100 µM
same,GI50,CCRF-CEM,11 µM
same,pIC50,CCRF-CEM,4.13
same,IC (TGI),CCRF-CEM,100 µM
same,CC50,CCRF-CEM,≥ 100 µM
same,GI50,NCI-H23,13.8 µM
same,pIC50,NCI-H23,4.55
same,IC (TGI),NCI-H23,38.9 µM
same,CC50,NCI-H23,≥ 100 µM
same,GI50,M14,12.9 µM
same,pIC50,M14,4.65
same,IC (TGI),M14,33.1 µM
same,CC50,M14,87.1 µM
same,GI50,IGROV1,2.95 µM
same,pIC50,IGROV1,5.36
same,IC (TGI),IGROV1,10.2 µM
same,CC50,IGROV1,38 µM
same,GI50,MCF7,19.5 µM
same,pIC50,MCF7,4.52
same,IC (TGI),MCF7,75.9 µM
same,CC50,MCF7,≥ 100 µM
same,GI50,PC-3,15.1 µM
same,pIC50,PC-3,4.59
same,IC (TGI),PC-3,47.9 µM
same,CC50,PC-3,≥ 100 µM
same,GI50,HCT-116,4.9 µM
same,pIC50,HCT-116,5.22
same,IC (TGI),HCT-116,20.4 µM
same,CC50,HCT-116,67.6 µM
same,GI50,DU-145,30.2 µM
same,pIC50,DU-145,4.30
same,IC (TGI),DU-145,100 µM
same,CC50,DU-145,≥ 100 µM
same,GI50,A498,100 µM
same,pIC50,A498,4.00
same,IC (TGI),A498,100 µM
same,CC50,A498,≥ 100 µM
FC(F)(F)c1cc2c(Cl)ncnc2n1CCN1CCOCC1 [NUCC-0226680],GI50,HS 578T,16.6 µM
same,pIC50,HS 578T,4.00
same,IC (TGI),HS 578T,58.9 µM
same,CC50,HS 578T,≥ 100 µM
same,GI50,EKVX,17 µM
same,pIC50,EKVX,4.30
same,IC (TGI),EKVX,95.5 µM
same,CC50,EKVX,≥ 100 µM
same,GI50,NCI-H522,1.48 µM
same,pIC50,NCI-H522,5.53
same,IC (TGI),NCI-H522,3.31 µM
same,GI50,SW-620,10.5 µM
same,pIC50,SW-620,4.84
same,IC (TGI),SW-620,56.2 µM
same,CC50,SW-620,≥ 100 µM
same,GI50,T-47D,38.9 µM
same,pIC50,T-47D,4.00
same,IC (TGI),T-47D,100 µM
same,CC50,T-47D,≥ 100 µM
same,GI50,OVCAR-3,19.5 µM
same,pIC50,OVCAR-3,4.43
same,IC (TGI),OVCAR-3,43.7 µM
same,CC50,OVCAR-3,97.7 µM
same,GI50,MALME-3M,21.9 µM
same,pIC50,MALME-3M,4.06
same,IC (TGI),MALME-3M,67.6 µM
same,CC50,MALME-3M,≥ 100 µM
same,GI50,K-562,3.02 µM
same,pIC50,K-562,5.43
same,IC (TGI),K-562,18.6 µM
same,CC50,K-562,≥ 100 µM
same,GI50,HOP-92,19.1 µM
same,pIC50,HOP-92,4.10
same,IC (TGI),HOP-92,60.3 µM
same,CC50,HOP-92,≥ 100 µM
same,GI50,SK-MEL-2,17.4 µM
same,pIC50,SK-MEL-2,4.47
same,IC (TGI),SK-MEL-2,33.1 µM
same,CC50,SK-MEL-2,64.6 µM
same,GI50,SF-295,24.5 µM
same,pIC50,SF-295,4.34
same,IC (TGI),SF-295,100 µM
same,CC50,SF-295,≥ 100 µM
same,GI50,ACHN,7.59 µM
same,pIC50,ACHN,4.81
same,IC (TGI),ACHN,100 µM
same,CC50,ACHN,≥ 100 µM
same,GI50,A549/ATCC,100 µM
same,pIC50,A549/ATCC,4.00
same,IC (TGI),A549/ATCC,100 µM
same,CC50,A549/ATCC,≥ 100 µM
same,IC50,[1],0.679 µM
same,pIC50,[1],> 5.70
same,GI50,OVCAR-4,33.1 µM
same,pIC50,OVCAR-4,4.00
same,IC (TGI),OVCAR-4,100 µM
same,CC50,OVCAR-4,≥ 100 µM
same,GI50,CCRF-CEM,16.6 µM
same,pIC50,CCRF-CEM,4.45
same,IC (TGI),CCRF-CEM,100 µM
same,CC50,CCRF-CEM,≥ 100 µM
same,GI50,NCI-H23,17.8 µM
same,pIC50,NCI-H23,4.43
same,IC (TGI),NCI-H23,74.1 µM
same,CC50,NCI-H23,≥ 100 µM
same,GI50,M14,11.5 µM
same,pIC50,M14,4.69
same,IC (TGI),M14,36.3 µM
same,CC50,M14,≥ 100 µM
same,GI50,IGROV1,2.51 µM
same,pIC50,IGROV1,5.40
same,IC (TGI),IGROV1,7.59 µM
same,CC50,IGROV1,35.5 µM
same,GI50,MCF7,25.1 µM
same,pIC50,MCF7,4.45
same,IC (TGI),MCF7,100 µM
same,CC50,MCF7,≥ 100 µM
same,GI50,PC-3,11.2 µM
same,pIC50,PC-3,4.72
same,IC (TGI),PC-3,36.3 µM
same,CC50,PC-3,≥ 100 µM
same,GI50,HCT-116,4.68 µM
same,pIC50,HCT-116,5.25
same,IC (TGI),HCT-116,100 µM
same,CC50,HCT-116,≥ 100 µM
same,GI50,DU-145,28.8 µM
same,pIC50,DU-145,4.30
same,IC (TGI),DU-145,100 µM
same,CC50,DU-145,≥ 100 µM
same,GI50,A498,100 µM
same,pIC50,A498,4.00
same,IC (TGI),A498,100 µM
same,CC50,A498,≥ 100 µM
